Assay results as given in patent US6596036B2, “Method for the production of a dye preparation based on madder root” (Coöperatie Rubia U.A., priority 2000, dated 2003).

Assays:
[1] = solubility in water (statement in Example 3); type: physicochemical; conditions: stated to explain the reaction speed in the madder root extraction mixture
Description: After analysis of the reaction mixture it follows that within 60 minutes all LP is converted into LUC. After the reaction vessel is opened, LUC is converted into NOR, a step which takes 6 hours. When oxygen is present LUC can not be detected, which means that its conversion is much faster than in the present experimental situation. […] Therefore, it is in general difficult for the enzyme to oxidize the solid LUC to NOR. However, when the reaction is performed under oxygen LUC cannot crystalize, because it is immediately oxidized to NOR.

[2] = stated as known, no test described; cited from earlier work

solubility in water [1]	Compound	mutagenicity [2]
not soluble in water	O=C1c2ccccc2C(=O)c2c1cc(O)c(CO)c2O [LUC, lucidin]	mutagenic
insoluble in water	O=Cc1c(O)cc2c(c1O)C(=O)c1ccccc1C2=O [NOR, nordamnacanthal]	
